Source: paper PMC11480411, “Mucosal sugars delineate pyrazine vs pyrazinone autoinducer signaling in Klebsiella oxytoca” (Nature Communications, 2024)

What was measured:
Experiment in all cases: PRESTO-Tango GPCR screen
Format in all cases: cell-based
Conditions in all cases: 100 µM
PTGFR = biological target: T1, PTGFR (Homo sapiens, UniProt P43088)
T1 construct: purchased PRESTO-Tango GPCR kit (Roth lab / Addgene)
Outline: (§1)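 HTLA cells (HEK293 stably expressing β-arrestin-TEV and tTA-luciferase) transiently transfected with GPCR-Tango plasmids, then exposed to compound at 100 μM final for 20 h. Luminescence read after Bright-Glo; activation fold = RLU over PBS control. Dose-response spanned 10^−4 M to 10^−15 M.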

NTSR2 = biological target: T2, NTSR2 (Homo sapiens, UniProt O95665)
T2 construct: purchased PRESTO-Tango GPCR kit (Roth lab / Addgene)
T2 sequence (O95665 whole entry): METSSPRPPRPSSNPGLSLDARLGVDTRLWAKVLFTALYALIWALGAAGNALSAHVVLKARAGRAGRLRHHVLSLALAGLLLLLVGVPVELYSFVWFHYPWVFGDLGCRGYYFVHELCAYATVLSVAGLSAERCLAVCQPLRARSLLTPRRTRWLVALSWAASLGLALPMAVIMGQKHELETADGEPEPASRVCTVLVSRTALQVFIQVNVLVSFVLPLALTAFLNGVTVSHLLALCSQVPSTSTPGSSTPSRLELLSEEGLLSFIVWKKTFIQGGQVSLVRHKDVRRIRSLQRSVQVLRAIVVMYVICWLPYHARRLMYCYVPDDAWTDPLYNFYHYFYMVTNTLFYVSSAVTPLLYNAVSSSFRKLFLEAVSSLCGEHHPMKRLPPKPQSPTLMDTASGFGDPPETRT
Outline: as §1

GPR174 = biological target: T3, GPR174 (Homo sapiens, UniProt Q9BXC1)
T3 construct: purchased PRESTO-Tango GPCR kit (Roth lab / Addgene)
T3 sequence (Q9BXC1 whole entry): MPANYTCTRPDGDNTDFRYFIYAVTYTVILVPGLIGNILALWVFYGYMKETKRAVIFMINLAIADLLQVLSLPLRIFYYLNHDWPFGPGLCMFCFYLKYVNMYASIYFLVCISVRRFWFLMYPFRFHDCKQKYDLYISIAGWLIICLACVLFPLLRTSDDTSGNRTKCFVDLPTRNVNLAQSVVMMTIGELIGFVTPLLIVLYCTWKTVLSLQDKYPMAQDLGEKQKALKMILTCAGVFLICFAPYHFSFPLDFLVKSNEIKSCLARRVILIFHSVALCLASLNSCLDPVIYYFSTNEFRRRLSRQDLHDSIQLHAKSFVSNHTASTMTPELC
Outline: as §1

GPR3 = biological target: T4, GPR3 (Homo sapiens, UniProt P46089)
T4 construct: purchased PRESTO-Tango GPCR kit (Roth lab / Addgene)
T4 sequence (P46089 whole entry): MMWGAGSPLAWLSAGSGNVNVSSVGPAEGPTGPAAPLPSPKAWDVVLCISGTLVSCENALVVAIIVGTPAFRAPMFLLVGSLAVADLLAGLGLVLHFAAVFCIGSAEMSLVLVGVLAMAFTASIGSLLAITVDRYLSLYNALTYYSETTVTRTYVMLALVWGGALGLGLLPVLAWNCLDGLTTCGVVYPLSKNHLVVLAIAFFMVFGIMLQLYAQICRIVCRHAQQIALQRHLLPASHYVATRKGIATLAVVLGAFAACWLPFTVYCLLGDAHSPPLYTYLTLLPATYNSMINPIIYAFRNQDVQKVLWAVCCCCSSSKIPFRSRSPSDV
Outline: as §1

NPY2R = biological target: T5, NPY2R (Homo sapiens, UniProt P49146)
T5 construct: purchased PRESTO-Tango GPCR kit (Roth lab / Addgene)
T5 sequence (P49146 whole entry): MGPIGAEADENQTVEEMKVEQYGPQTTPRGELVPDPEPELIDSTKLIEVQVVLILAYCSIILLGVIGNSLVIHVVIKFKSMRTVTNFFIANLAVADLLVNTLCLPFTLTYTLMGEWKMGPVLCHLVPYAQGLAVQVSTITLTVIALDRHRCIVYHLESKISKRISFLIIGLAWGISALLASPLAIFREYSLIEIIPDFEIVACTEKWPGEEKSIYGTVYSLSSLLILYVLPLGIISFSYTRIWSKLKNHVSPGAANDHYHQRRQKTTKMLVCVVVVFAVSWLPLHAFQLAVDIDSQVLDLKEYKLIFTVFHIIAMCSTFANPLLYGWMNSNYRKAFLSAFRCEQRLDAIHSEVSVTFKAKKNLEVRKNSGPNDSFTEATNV
Outline: as §1

HTR4 = biological target: T6, HTR4 (Homo sapiens, UniProt Q13639)
T6 construct: purchased PRESTO-Tango GPCR kit (Roth lab / Addgene)
Outline: as §1

CXCR5 = biological target: T7, CXCR5 (Homo sapiens, UniProt P32302)
T7 construct: purchased PRESTO-Tango GPCR kit (Roth lab / Addgene)
Outline: as §1

GRM2 = biological target: T8, GRM2 (Homo sapiens, UniProt Q14416)
T8 construct: purchased PRESTO-Tango GPCR kit (Roth lab / Addgene)
Outline: as §1

PTH2R = biological target: T9, PTH2R (Homo sapiens, UniProt P49190)
T9 construct: purchased PRESTO-Tango GPCR kit (Roth lab / Addgene)
Outline: as §1

SSTR5 = biological target: T10, SSTR5 (Homo sapiens, UniProt P35346)
T10 construct: purchased PRESTO-Tango GPCR kit (Roth lab / Addgene)
Outline: as §1

HCA1 = biological target: T11, HCA1 (Homo sapiens, UniProt Q9BXC0)
T11 construct: purchased PRESTO-Tango GPCR kit (Roth lab / Addgene)
Outline: as §1

GRPR = biological target: T12, GRPR (Homo sapiens, UniProt P30550)
T12 construct: purchased PRESTO-Tango GPCR kit (Roth lab / Addgene)
T12 sequence (P30550 whole entry): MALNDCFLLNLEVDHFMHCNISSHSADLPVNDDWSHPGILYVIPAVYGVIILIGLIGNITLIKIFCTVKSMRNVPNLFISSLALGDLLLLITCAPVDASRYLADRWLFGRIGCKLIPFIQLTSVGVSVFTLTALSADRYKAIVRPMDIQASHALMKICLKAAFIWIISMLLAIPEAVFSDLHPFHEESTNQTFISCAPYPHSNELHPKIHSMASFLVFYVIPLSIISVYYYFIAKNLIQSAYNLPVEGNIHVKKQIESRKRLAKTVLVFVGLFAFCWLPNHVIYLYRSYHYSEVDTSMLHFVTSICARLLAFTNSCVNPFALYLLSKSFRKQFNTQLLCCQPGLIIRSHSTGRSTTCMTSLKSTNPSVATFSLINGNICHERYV
Outline: as §1

CXCR2 = biological target: T13, CXCR2 (Homo sapiens, UniProt P25025)
T13 construct: purchased PRESTO-Tango GPCR kit (Roth lab / Addgene)
Outline: as §1

GPR27 = biological target: T14, GPR27 (Homo sapiens, UniProt Q9NS67)
T14 construct: purchased PRESTO-Tango GPCR kit (Roth lab / Addgene)
Outline: as §1

F2RL1 = biological target: T15, F2RL1 (Homo sapiens, UniProt P55085)
T15 construct: purchased PRESTO-Tango GPCR kit (Roth lab / Addgene)
Outline: as §1

GPR31 = biological target: T16, GPR31 (Homo sapiens, UniProt O00270)
T16 construct: purchased PRESTO-Tango GPCR kit (Roth lab / Addgene)
Outline: as §1

F2R = biological target: T17, F2R (Homo sapiens, UniProt P25116)
T17 construct: purchased PRESTO-Tango GPCR kit (Roth lab / Addgene)
T17 sequence (P25116 22-425): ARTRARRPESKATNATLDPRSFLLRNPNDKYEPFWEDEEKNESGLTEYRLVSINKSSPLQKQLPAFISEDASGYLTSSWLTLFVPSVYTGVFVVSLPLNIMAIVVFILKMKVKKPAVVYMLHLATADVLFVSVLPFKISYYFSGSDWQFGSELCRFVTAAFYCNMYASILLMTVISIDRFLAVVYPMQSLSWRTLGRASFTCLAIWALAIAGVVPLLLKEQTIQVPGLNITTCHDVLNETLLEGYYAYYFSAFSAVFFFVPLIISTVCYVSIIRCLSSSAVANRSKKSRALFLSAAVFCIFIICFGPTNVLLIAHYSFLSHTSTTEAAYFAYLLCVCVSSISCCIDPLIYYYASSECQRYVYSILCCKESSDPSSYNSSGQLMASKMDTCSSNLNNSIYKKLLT
Outline: as §1

MRGPRD = biological target: T18, MRGPRD (Homo sapiens, UniProt Q8TDS7)
T18 construct: purchased PRESTO-Tango GPCR kit (Roth lab / Addgene)
Outline: as §1

CYSLTR1 = biological target: T19, CYSLTR1 (Homo sapiens, UniProt Q9Y271)
T19 construct: purchased PRESTO-Tango GPCR kit (Roth lab / Addgene)
Outline: as §1

GPR17 = biological target: T20, GPR17 (Homo sapiens, UniProt Q13304)
T20 construct: purchased PRESTO-Tango GPCR kit (Roth lab / Addgene)
Outline: as §1

GPR120 = biological target: T21, GPR120 (Homo sapiens, UniProt Q5NUL3)
T21 construct: purchased PRESTO-Tango GPCR kit (Roth lab / Addgene)
Outline: as §1

CXCR7 = biological target: T22, CXCR7 (Homo sapiens, UniProt P25106)
T22 construct: purchased PRESTO-Tango GPCR kit (Roth lab / Addgene)
T22 sequence (P25106 whole entry): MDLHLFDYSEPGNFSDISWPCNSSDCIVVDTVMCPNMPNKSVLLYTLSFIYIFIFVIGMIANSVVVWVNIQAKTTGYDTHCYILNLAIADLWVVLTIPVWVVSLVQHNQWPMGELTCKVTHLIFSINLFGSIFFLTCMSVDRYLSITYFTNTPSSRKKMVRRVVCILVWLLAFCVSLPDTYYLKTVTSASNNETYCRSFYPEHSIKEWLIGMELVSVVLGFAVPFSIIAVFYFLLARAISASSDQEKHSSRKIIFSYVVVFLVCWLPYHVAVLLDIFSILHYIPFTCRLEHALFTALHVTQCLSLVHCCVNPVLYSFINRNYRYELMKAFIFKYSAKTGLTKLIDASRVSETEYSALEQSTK
Outline: as §1

GPR4 = biological target: T23, GPR4 (Homo sapiens, UniProt P46093)
T23 construct: purchased PRESTO-Tango GPCR kit (Roth lab / Addgene)
Outline: as §1

GPR37L1 = biological target: T24, GPR37L1 (Homo sapiens, UniProt O60883)
T24 construct: purchased PRESTO-Tango GPCR kit (Roth lab / Addgene)
Outline: as §1

GPR63 = biological target: T25, GPR63 (Homo sapiens, UniProt Q9BZJ6)
T25 construct: purchased PRESTO-Tango GPCR kit (Roth lab / Addgene)
T25 sequence (Q9BZJ6 whole entry): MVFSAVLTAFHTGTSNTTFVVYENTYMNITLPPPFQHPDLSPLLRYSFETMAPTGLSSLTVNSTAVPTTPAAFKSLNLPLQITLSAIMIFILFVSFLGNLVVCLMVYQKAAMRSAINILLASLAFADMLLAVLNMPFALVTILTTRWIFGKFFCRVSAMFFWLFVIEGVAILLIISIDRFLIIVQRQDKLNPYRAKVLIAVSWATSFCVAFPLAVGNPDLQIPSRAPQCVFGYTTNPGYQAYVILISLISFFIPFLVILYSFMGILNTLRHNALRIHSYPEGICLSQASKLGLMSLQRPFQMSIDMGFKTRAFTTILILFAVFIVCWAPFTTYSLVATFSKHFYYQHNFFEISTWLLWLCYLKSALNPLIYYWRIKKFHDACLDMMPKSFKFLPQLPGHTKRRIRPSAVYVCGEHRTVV
Outline: as §1

GPR50 = biological target: T26, GPR50 (Homo sapiens, UniProt Q13585)
T26 construct: purchased PRESTO-Tango GPCR kit (Roth lab / Addgene)
Outline: as §1

GPR183 = biological target: T27, GPR183 (Homo sapiens, UniProt P32249)
T27 construct: purchased PRESTO-Tango GPCR kit (Roth lab / Addgene)
T27 sequence (P32249 whole entry): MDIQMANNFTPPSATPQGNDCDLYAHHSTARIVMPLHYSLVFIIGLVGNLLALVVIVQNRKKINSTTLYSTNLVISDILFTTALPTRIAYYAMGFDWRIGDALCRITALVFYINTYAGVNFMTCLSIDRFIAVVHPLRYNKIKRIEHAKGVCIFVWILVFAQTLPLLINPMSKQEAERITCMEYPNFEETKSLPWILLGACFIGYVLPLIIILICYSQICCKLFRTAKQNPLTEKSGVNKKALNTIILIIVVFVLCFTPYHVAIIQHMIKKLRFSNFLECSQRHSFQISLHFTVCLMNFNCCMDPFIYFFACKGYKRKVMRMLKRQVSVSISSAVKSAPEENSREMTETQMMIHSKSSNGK
Outline: as §1

NMUR1 = biological target: T28, NMUR1 (Homo sapiens, UniProt Q9HB89)
T28 construct: purchased PRESTO-Tango GPCR kit (Roth lab / Addgene)
Outline: as §1

GPR142 = biological target: T29, GPR142 (Homo sapiens, UniProt Q7Z601)
T29 construct: purchased PRESTO-Tango GPCR kit (Roth lab / Addgene)
Outline: as §1

HTR1D = biological target: T30, HTR1D (Homo sapiens, UniProt P28221)
T30 construct: purchased PRESTO-Tango GPCR kit (Roth lab / Addgene)
T30 sequence (P28221 whole entry): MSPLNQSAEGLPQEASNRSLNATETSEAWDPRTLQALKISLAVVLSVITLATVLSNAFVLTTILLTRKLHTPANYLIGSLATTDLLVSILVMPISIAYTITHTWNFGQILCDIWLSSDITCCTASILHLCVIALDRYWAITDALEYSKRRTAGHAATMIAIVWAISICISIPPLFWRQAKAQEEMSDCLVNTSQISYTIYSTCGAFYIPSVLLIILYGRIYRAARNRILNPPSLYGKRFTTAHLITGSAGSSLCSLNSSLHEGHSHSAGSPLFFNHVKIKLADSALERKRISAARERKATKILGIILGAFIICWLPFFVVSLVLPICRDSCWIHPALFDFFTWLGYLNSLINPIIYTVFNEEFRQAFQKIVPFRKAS
Outline: as §1

LTB4R2B = biological target: T31, LTB4R2B (Homo sapiens, UniProt Q9NPC1)
T31 construct: purchased PRESTO-Tango GPCR kit (Roth lab / Addgene)
Outline: as §1

TA1 = biological target: T32, TA1 (Homo sapiens, UniProt Q96RJ0)
T32 construct: purchased PRESTO-Tango GPCR kit (Roth lab / Addgene)
T32 sequence (Q96RJ0 whole entry): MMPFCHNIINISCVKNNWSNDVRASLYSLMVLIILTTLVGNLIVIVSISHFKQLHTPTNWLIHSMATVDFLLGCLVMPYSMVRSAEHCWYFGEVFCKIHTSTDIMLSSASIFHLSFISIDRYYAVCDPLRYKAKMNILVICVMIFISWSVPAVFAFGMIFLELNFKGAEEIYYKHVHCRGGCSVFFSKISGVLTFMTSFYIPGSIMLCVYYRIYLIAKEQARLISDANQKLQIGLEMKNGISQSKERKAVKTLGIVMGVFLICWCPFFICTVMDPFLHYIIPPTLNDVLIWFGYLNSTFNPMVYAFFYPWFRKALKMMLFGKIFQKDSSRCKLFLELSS
Outline: as §1

GPR18 = biological target: T33, GPR18 (Homo sapiens, UniProt Q14330)
T33 construct: purchased PRESTO-Tango GPCR kit (Roth lab / Addgene)
Outline: as §1

GCGR = biological target: T34, GCGR (Homo sapiens, UniProt P47871)
T34 construct: purchased PRESTO-Tango GPCR kit (Roth lab / Addgene)
T34 sequence (P47871 26-477): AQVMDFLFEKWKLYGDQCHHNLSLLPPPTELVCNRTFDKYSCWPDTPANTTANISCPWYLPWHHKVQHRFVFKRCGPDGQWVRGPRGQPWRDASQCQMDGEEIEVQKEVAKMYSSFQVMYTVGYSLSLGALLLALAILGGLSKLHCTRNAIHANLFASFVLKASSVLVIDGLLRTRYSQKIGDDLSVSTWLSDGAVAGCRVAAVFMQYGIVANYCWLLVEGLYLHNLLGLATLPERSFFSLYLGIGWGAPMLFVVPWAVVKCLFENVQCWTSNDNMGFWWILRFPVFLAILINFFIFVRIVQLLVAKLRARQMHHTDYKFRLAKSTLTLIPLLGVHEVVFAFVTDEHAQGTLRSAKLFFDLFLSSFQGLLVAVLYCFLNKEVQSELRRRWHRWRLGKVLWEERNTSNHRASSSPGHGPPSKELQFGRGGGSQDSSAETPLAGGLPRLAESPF
Outline: as §1

S1PR1 = biological target: T35, S1PR1 (Homo sapiens, UniProt P21453)
T35 construct: purchased PRESTO-Tango GPCR kit (Roth lab / Addgene)
Outline: as §1

HTR2C = biological target: T36, HTR2C (Homo sapiens, UniProt P28335)
T36 construct: purchased PRESTO-Tango GPCR kit (Roth lab / Addgene)
Outline: as §1

T1 sequence (P43088 whole entry): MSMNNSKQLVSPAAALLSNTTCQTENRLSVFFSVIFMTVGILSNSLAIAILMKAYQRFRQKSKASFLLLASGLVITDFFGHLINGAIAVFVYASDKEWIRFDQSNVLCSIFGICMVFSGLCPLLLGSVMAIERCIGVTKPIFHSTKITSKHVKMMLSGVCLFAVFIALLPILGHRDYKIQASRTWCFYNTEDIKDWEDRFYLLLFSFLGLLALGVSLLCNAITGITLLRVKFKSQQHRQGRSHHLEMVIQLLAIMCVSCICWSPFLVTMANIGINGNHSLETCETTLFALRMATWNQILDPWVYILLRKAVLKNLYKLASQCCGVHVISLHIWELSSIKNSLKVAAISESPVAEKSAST

Row | SMILES | GPCR activation (heatmap value) (PTGFR) | GPCR activation (heatmap value) (NTSR2) | GPCR activation (heatmap value) (GPR174) | GPCR activation (heatmap value) (GPR3) | GPCR activation (heatmap value) (NPY2R) | GPCR activation (heatmap value) (HTR4) | GPCR activation (heatmap value) (CXCR5) | GPCR activation (heatmap value) (GRM2) | GPCR activation (heatmap value) (PTH2R) | GPCR activation (heatmap value) (SSTR5) | GPCR activation (heatmap value) (HCA1) | GPCR activation (heatmap value) (GRPR) | GPCR activation (heatmap value) (CXCR2) | GPCR activation (heatmap value) (GPR27) | GPCR activation (heatmap value) (F2RL1) | GPCR activation (heatmap value) (GPR31) | GPCR activation (heatmap value) (F2R) | GPCR activation (heatmap value) (MRGPRD) | GPCR activation (heatmap value) (CYSLTR1) | GPCR activation (heatmap value) (GPR17) | further results
1 | CC(C)Cc1ncc(CCCNC(=N)N)[nH]c1=O [compound 3] | 0.901 | -2.304 | 0.3321 | -0.8156 | 0.1932 | -1.236 | 0.2848 | -1.186 | -0.2039 | -1.082 | 0.05882 | 0.1678 | 0.3766 | 0.1426 | 0.6997 | 0.1606 | -0.02389 | -0.4298 | 0.3416 | 0.1737 | GPCR activation (heatmap value) (GPR120): 0.8927; GPCR activation (heatmap value) (CXCR7): -0.2802; GPCR activation (heatmap value) (GPR4): 0.5113; GPCR activation (heatmap value) (GPR37L1): -0.6695; GPCR activation (heatmap value) (GPR63): 0.05297; GPCR activation (heatmap value) (GPR50): 0.1425; GPCR activation (heatmap value) (GPR183): -0.9955; GPCR activation (heatmap value) (NMUR1): -0.191; GPCR activation (heatmap value) (GPR142): -0.6317; GPCR activation (heatmap value) (HTR1D): 0.2043; GPCR activation (heatmap value) (LTB4R2B): -1.038; GPCR activation (heatmap value) (TA1): -0.5267; GPCR activation (heatmap value) (GPR18): 0.788; GPCR activation (heatmap value) (GCGR): 0.3476; GPCR activation (heatmap value) (S1PR1): -0.122; GPCR activation (heatmap value) (HTR2C): 0.7228
2 | CC(C)Cc1ncc(CCCCNC(=N)N)[nH]c1=O [3-Homo] | 0.3992 | -0.1953 | 0.4742 | -1.589 | 0.3401 | -0.1279 | -0.9057 | -1.403 | -0.1142 | -0.02493 | -0.6134 | -0.6902 | 0.01869 | -0.5119 | -0.2678 | 0.09636 | -0.4507 | 0.2698 | -0.2334 | 0.06719 | GPCR activation (heatmap value) (GPR120): 0.1572; GPCR activation (heatmap value) (CXCR7): -1.352; GPCR activation (heatmap value) (GPR4): 0.3486; GPCR activation (heatmap value) (GPR37L1): 0.03037; GPCR activation (heatmap value) (GPR63): 0.374; GPCR activation (heatmap value) (GPR50): 0.1425; GPCR activation (heatmap value) (GPR183): -0.6232; GPCR activation (heatmap value) (NMUR1): 0.8213; GPCR activation (heatmap value) (GPR142): -0.286; GPCR activation (heatmap value) (HTR1D): -0.01602; GPCR activation (heatmap value) (LTB4R2B): 0.02731; GPCR activation (heatmap value) (TA1): 0.4199; GPCR activation (heatmap value) (GPR18): -0.3064; GPCR activation (heatmap value) (GCGR): 0.3222; GPCR activation (heatmap value) (S1PR1): -0.03733; GPCR activation (heatmap value) (HTR2C): 0.3471
